{"source": "patent US20090054500A1", "about": "“Composition and methods useful in preventing cardiac hypertrophy” (The Brigham and Women's Hospital, Inc., priority 2005, published 2009)", "key": {"mouse cardiomyoctes": {"test_system": "mouse cardiomyoctes", "protocol": "Cell hypertrophy was determined by the incorporation of ^3H-leucine."}, "VEGF": {"test_system": "VEGF", "conditions": "Peterson, et al., Nat. Biotechnol. 22:595 (2004); cited from earlier work"}, "cardiomyocytes": {"test_system": "cardiomyocytes", "conditions": "cardiomyocytes in vitro"}, "[1]": {"test_system": "gridlock phenotype associated with mutations in the CHF1 gene in zebrafish", "conditions": "Peterson, et al., Nat. Biotechnol. 22:595-599 (2004); cited from earlier work"}}, "note": "Several values for one entry are separate records, joined by “and”; a condition that tells them apart may be missing. Equal values may be shown once. Read-outs that look alike come from different tables or passages of the source.", "data": [{"smiles": "COc1ccc(SCCc2ccncc2)cc1.Cl", "note": "[GS4012, 4-(2-(4-Methoxyphenylsulfanyl)ethyl)pyridine, HCl]", "values": [{"measurement": "incorporation of 3H-leucine (cell hypertrophy), mean", "setting": "mouse cardiomyoctes; Table 2, GS4012 + FCS, mean of 12 tests", "value": 340.5825, "unit": "counts per minute"}, {"measurement": "incorporation of 3H-leucine (cell hypertrophy), mean", "setting": "mouse cardiomyoctes; Table 2, GS4012, no FCS, mean of 12 tests", "value": 397.6667, "unit": "counts per minute"}, {"measurement": "incorporation of 3H-leucine (cell hypertrophy), mean", "setting": "mouse cardiomyoctes; Table 3, WT, GS4012 2.5 μg/ml, no FCS, mean of 8 tests, HCl", "value": "329.4 counts per minute and 329.37 counts per minute"}, {"measurement": "incorporation of 3H-leucine (cell hypertrophy), mean", "setting": "mouse cardiomyoctes; Table 3, WT, GS4012 + FCS, mean of 8 tests, HCl", "value": "419.7925 counts per minute and 419.8 counts per minute"}, {"measurement": "FCS induction of cardiomyocyte proliferation when GS4012 was present", "setting": "mouse cardiomyoctes; cpm for vehicle+GS4012 compared with vehicle+GS4012+FCS", "value": "did not occur"}, {"measurement": "VEGF and VEGF-mediated vessel formation", "setting": "VEGF", "value": "induces"}, {"measurement": "effect on phenylephrine-induced hypertrophy", "setting": "cardiomyocytes", "value": "prevent phenylephrine-induced hypertrophy"}, {"measurement": "effect on gridlock phenotype", "setting": "[1]", "value": "suppresses the gridlock phenotype"}]}]}
